This is an account of results in article PMC5486603, “Toward molecular imaging of the free fatty acid receptor 1” (Acta Diabetologica, 2017).

“Also recorded” adds a separate entry of the source. Bounds are passed on as bounds.

Details of series [1]: method as in NCT01609582. The settings on record: oral dosing of 50 mg daily, individuals with Type 2 diabetes with cardiovascular risk factors, phase 3; ref NCT01609582; cited from earlier work.
In the next series the target is mouse GPR40 receptor. Details: method as in data on file, AstraZeneca. To be noted: mouse GPR40 overexpressing HEK293 cells, IP-One Tb HTRF; ref data on file, AstraZeneca; cited from earlier work. Background: In TR-FRET formats the signal depends on donor and acceptor labels being close together.
For series [2], the target named is T1, FFAR1 (Rattus norvegicus, UniProt Q8K3T4).
T1 construct: 50–100 mg INS-1 xenografts were homogenized using a Polytron tissue homogenizer; from tissue; host or cells: INS-1 (rat insulinoma) xenograft tumours grown subcutaneously in Balbc nu/nu mice, homogenate
T1 sequence (Q8K3T4 whole entry): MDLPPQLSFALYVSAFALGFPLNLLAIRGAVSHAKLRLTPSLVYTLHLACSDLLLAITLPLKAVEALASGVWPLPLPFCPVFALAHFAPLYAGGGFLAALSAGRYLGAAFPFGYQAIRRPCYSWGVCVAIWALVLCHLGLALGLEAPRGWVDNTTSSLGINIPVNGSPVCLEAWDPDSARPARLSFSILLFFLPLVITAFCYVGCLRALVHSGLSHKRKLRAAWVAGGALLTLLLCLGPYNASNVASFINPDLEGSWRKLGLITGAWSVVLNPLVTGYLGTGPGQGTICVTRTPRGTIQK
Briefly: In vitro radioligand binding in INS-1 xenograft tissue homogenate. To be noted: for off-target (non-displaceable) binding: 2 nM [3H]AZ1 or [3H]AZ2, 4 nM [3H]TAK-875, 10 µM unlabeled ligand for non-specific binding; for specific bound radiolabeled ligand (FFAR1 density): 2 nM radiolabeled ligand. As for the experimental part: Rat insulinoma cell line INS-1 xenografts, explanted from immunodeficient mice postmortem, were used as a model of beta cells. Briefly, approximately 2 million INS-1 cells were injected subcutaneously in the right flank of Balbc nu/nu mice. Tumor growth was monitored by palpation, and when tumor diameter was 10 mm, the animals were euthanized and the INS-1 tumor explanted.
(§1) Isolated endocrine (75–95% islet purity) and exocrine tissues were homogenized in ice-cold 0.32 M sucrose by hand using a Dounce glass homogenizer to a final concentration of 6 mg/ml. 50–100 mg INS-1 xenografts were homogenized using a Polytron tissue homogenizer (Polytron® PT 3000, Kinematica AG, Littau-Luzern, Switzerland) in ice-cold 0.32 M sucrose at a concentration of 6 mg/ml and then by hand using a Dounce glass homogenizer. Protein concentration was determined using Bio-Rad Protein Assay (Bio-Rad Laboratories, Hercules, CA) with bovine serum albumin as standard. Aliquots of the homogenates were stored at −80 °C until used.
(§2) One milligram of homogenized endocrine and exocrine tissue and 2 mg insulinoma tissue was incubated for 2 h at room temperature with 2 nM [^3H]AZ1 or 2 nM [^3H]AZ2 and PBS in a final incubation volume of 1 ml. Two milligram insulinoma tissue was incubated for 2 h at room temperature with 4 nM [^3H]TAK-875 and 50 mM TRIS (pH 7.4) in a final incubation volume of 1 ml. All three ligands were dissolved in ethanol. 10 µM of unlabeled AZ1 or TAK-875 was added for determination of non-specific binding. The samples were filtered using a Brandel M-48 cell harvester with Whatman GF/C filter (presoaked with PBS or 50 mM TRIS) and washed four times with 3 ml PBS or 50 mM TRIS (room temperature). Filters were put into scintillation vials, dried for 30 min before adding 10 ml Ultima Gold scintillation fluid (Perkin Elmer, Waltham, MA). The filters were shaken for 60 min and then counted in a β-counter (Packard Scintillator Tri-Carb 2100TR). The K d and B max values for [^3H]AZ1 binding were determined using concentrations of the tritiated ligand from 1 to 20 nM. All assay concentrations were replicated in triplicate, both total binding and non-specific binding.
(§3) The specific binding for each concentration of radiolabeled ligand was calculated by subtracting the non-specific binding (average of three replicates) from the total binding (average of three replicates), and expressed as fmol or pmol/mg protein. The specific binding data were analyzed with curve-fitting software (GraphPad Prism version 5.04) to obtain K d and B max values.

Series [3] addresses T2, FFAR1 (Homo sapiens, UniProt O14842). In words: In vitro radioligand binding and saturation binding in human islets of Langerhans homogenate. Details: Isolated endocrine (75–95% islet purity) and exocrine tissues were homogenized in ice-cold 0.32 M sucrose; from tissue; host or cells: human isolated pancreatic islets (75–95% purity), homogenate. To be noted: for islet-to-exocrine ratio: human islets vs human exocrine tissue; for FFAR1 density by specific binding: isolated human islets of Langerhans. As for the experimental part: (§4) Isolated pancreatic islets and exocrine tissue were obtained within the Nordic network for Clinical Islet Transplantation laboratory in Uppsala, Sweden. The use of human tissue was approved by the Uppsala Ethical Review Board (#2011/473, #Ups 02-577).
as §1, §2, §3

In series [4] the target is T2, FFAR1. Briefly: In vitro radioligand binding and saturation binding in human exocrine pancreatic tissue homogenate. Details: Isolated endocrine (75–95% islet purity) and exocrine tissues were homogenized in ice-cold 0.32 M sucrose; from tissue; host or cells: human exocrine pancreatic tissue, homogenate. To be noted: for receptor specific binding: human pancreatic exocrine tissue, 2 nM labeled ligand. As for the experimental part:
as §4, §1, §2, §3

Setting [5] is: human islets, representative saturation binding experiment (Fig. 5a).
[6] abbreviates: human exocrine tissue, representative saturation binding experiment (Fig. 5b).

T2 sequence (O14842 whole entry): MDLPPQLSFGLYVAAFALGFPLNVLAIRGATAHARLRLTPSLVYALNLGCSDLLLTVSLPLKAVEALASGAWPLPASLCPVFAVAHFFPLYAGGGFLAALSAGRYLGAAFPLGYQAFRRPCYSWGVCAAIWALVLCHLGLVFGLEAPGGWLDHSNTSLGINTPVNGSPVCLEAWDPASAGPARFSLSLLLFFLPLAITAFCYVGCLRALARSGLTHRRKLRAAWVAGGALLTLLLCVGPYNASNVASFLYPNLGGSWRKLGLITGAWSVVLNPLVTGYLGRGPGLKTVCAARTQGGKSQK

With `Cc1cc(OCCCS(C)(=O)=O)cc(C)c1-c1cccc(COc2ccc3c(c2)OC[C@H]3CC(=O)O)c1` [TAK-875, fasiglifam], in series [1], the side effects result is listed as “suspected hepatic toxic side effects”. Also, at mouse GPR40 receptor, the concentration giving a half-maximal response (EC50) was greater than 37500 nM.

`[3H]c1cc2c(c([3H])c1OCc1cccc(-c3c(C)cc(OCCCS(C)(=O)=O)c([3H])c3C)c1)OC[C@H]2CC(=O)O` [[^3H]TAK-875, reference compound]: at FFAR1 [2], the “off-target (non-displaceable) binding” value was “high non-specific off-target binding; also recorded: most off-target binding”. Further, the “measurement of FFAR1 density” value at FFAR1 [2] (4 nM [3H]TAK-875) was “severely underestimated”.

Consider `[3H]c1cc([3H])c(OCc2nc(-n3cc(C)cn3)nc(N3CCOCC3)c2[3H])cc1Cl` [[^3H]AZ2], for which, at FFAR1 [3] (2 nM labeled ligand), the islet-to-exocrine ratio turned out to be 1.65 and the “FFAR1 density by specific binding” value was “approximately 1600 fmol/mg protein”. Moreover, on FFAR1 [2], the “off-target (non-displaceable) binding” value is given as “decreased” and the “specific bound radiolabeled ligand (FFAR1 density)” value amounted to 177 fmol/mg protein. The receptor specific binding entry on FFAR1 [4] is listed as “below 1000 fmol/mg protein”.

In the case of `[3H]c1cc([3H])c(OCc2nc(-n3cc(C)cn3)nc(N3CCOCC3)c2[3H])cc1F` [[^3H]AZ1], on FFAR1 [3] (2 nM labeled ligand), the “higher FFAR1 binding in human islets compared to human exocrine tissue” value is reported as 30%, the islet-to-exocrine ratio was found to be 1.3 and the “FFAR1 density by specific binding” value is “approximately 1150 fmol/mg protein”. Besides, the “non-specific binding in different pancreatic compartments” value on FFAR1 [3] (human islets vs exocrine tissue) is “little difference”. Besides, at FFAR1 [3] (setting [5]), the Bmax came out at 6.3 pmol/mg protein and the Kd worked out at 15.8 nM. This compound came in with an equilibrium dissociation constant (Kd) at FFAR1 [3] (human islets, saturation binding 1 to 20 nM, n = 3, mean ± SEM) of 10.6 ± 1.5 nM. In addition, the B max on FFAR1 [3] (human islets, saturation binding, n = 3, mean ± SEM) amounted to 7.0 ± 2.0 pmol/mg protein. Further, on FFAR1 [2], the “off-target (non-displaceable) binding” value is listed as “decreased; also recorded: least” and the “specific bound radiolabeled ligand (FFAR1 density)” value was 132 fmol/mg protein. On FFAR1 [2] (incubation dose 2 nM), the specific binding result was “approximately 50%”. For the same compound, at FFAR1 [4] (setting [6]), the Bmax was found to be 15.8 pmol/mg protein and the equilibrium dissociation constant (Kd) worked out at 26.4 nM. Further, the Kd on FFAR1 [4] (human exocrine tissue, saturation binding 1 to 20 nM, n = 5, mean ± SEM) worked out at 19.7 ± 8.4 nM. At FFAR1 [4] (human exocrine tissue, saturation binding, n = 5, mean ± SEM), this compound came in with a B max of 13.6 ± 2.5 pmol/mg protein. Also, the receptor specific binding result at FFAR1 [4] is recorded as “below 1000 fmol/mg protein”.

The EC50 is the concentration giving half of the maximal effect. The Kd is a measure of binding affinity in units of concentration. Read a low Kd as higher affinity.
